Experimental data published in patent US20240041042A1, “1-(PYRIDYL)-5-AZINYLPYRAZOLE DERIVATIVES, AND THEIR USE FOR CONTROL OF UNDESIRED PLANT GROWTH” (Bayer Aktiengesellschaft, priority 2020, published 2024).
Read-outs that look alike come from different tables or passages of the source.

Experiments:
Type in all cases: in vivo
[1] = tested on: Amaranthus retroflexus (AMARE); experiment: Pre-emergence herbicidal action against AMARE; conditions: visual scoring after about 3 weeks vs untreated controls
Outline: (§1)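 Pre-emergence soil-surface spray of compound, formulated as wettable powder or emulsion concentrate, in aqueous suspension or emulsion with 0.5% additive (600 l/ha; rate 320 g/ha or less). Activity rated visually after roughly 3 weeks in the greenhouse as a percentage of untreated controls, 0% meaning no difference.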

[2] = tested on: Echinochloa crus-galli (ECHCG); experiment: Pre-emergence herbicidal action against ECHCG; conditions: dosage 320 g/ha
Outline: as §1

Lolium rigidum (LOLRI) [3] = experiment: Pre-emergence herbicidal action against LOLRI; conditions: dosage 320 g/ha
Outline: as §1

[4] = tested on: Matricaria inodora (MATIN); experiment: Pre-emergence herbicidal action against MATIN; conditions: dosage 320 g/ha
Outline: as §1

[5] = tested on: Polygonum convolvulus (POLCO); experiment: Pre-emergence herbicidal action against POLCO
Outline: as §1

Setaria viridis (SETVI) [6] = experiment: Pre-emergence herbicidal action against SETVI
Outline: as §1

Viola tricolor (VIOTR) [7] = experiment: Pre-emergence herbicidal action against VIOTR
Outline: as §1

[8] = tested on: Triticum aestivum (TRZAS); conditions: pre-emergence, 80 g/ha, crop plant compatibility, in comparison to untreated controls
Outline: (§2)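 Scoring: visual, % of untreated control, about 3 weeks after a pre-emergence application to the soil surface. Application used WP or EC formulations diluted in water with 0.5% additive at 600 l/ha; dosage levels are marked by suffixes a, b and c.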

Zea mays (ZEAMX) [9] = conditions: pre-emergence, 80 g/ha, crop plant compatibility, in comparison to untreated controls
Outline: as §2

[10] = tested on: Abutilon theophrasti (ABUTH); experiment: Post-emergence herbicidal action against ABUTH; conditions: visual rating about 3 weeks after treatment vs untreated controls (100% = plants have died, 0% = like control plants)
Outline: (§3)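 Values are percent visual activity (0% like control, 100% plants dead) after about 3 weeks in the greenhouse. Treatment: post-emergence spray at one-leaf stage, 600 l/ha spray volume, 0.5% additive, doses 320 g/ha or lower.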

[11] = tested on: Alopecurus myosuroides (ALOMY); experiment: Post-emergence herbicidal action against ALOMY; conditions: 320 g/ha, visual rating about 3 weeks after treatment vs untreated controls (100% = plants have died, 0% = like control plants)
Outline: as §3

[12] = tested on: Amaranthus retroflexus (AMARE); experiment: Post-emergence herbicidal action against AMARE
Outline: as §3

Avena fatua (AVEFA) [13] = experiment: Post-emergence herbicidal action against AVEFA; conditions: 320 g/ha, visual rating about 3 weeks after treatment
Outline: as §3

[14] = tested on: Echinochloa crus-galli (ECHCG); experiment: Post-emergence herbicidal action against ECHCG; conditions: dosage 320 g/ha
Outline: as §3

Lolium rigidum (LOLRI) [15] = experiment: Post-emergence herbicidal action against LOLRI; conditions: dosage 320 g/ha
Outline: as §3

[16] = tested on: Pharbitis purpurea (PHBPU); experiment: Post-emergence herbicidal action against PHBPU
Outline: as §3

[17] = tested on: Polygonum convolvulus (POLCO); experiment: Post-emergence herbicidal action against POLCO
Outline: as §3

Oryza sativa (ORYSA) = conditions: crop plant compatibility, effect in comparison to untreated controls
Outline: (§4)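 Foliar application at the one-leaf stage: WP/EC formulation, 0.5% additive, 600 l/ha water. Greenhouse-grown in sandy loam. Endpoint is visual % injury relative to untreated controls at about 3 weeks.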

[18] = tested on: Alopecurus myosuroides (ALOMY); experiment: Pre-emergence herbicidal action against ALOMY; conditions: scored visually after about 3 weeks, 100% = plants have died
Outline: as §1

Avena fatua (AVEFA) [19] = experiment: Pre-emergence herbicidal action against AVEFA; conditions: 320 g/ha, visual scoring after about 3 weeks vs untreated controls
Outline: as §1

[20] = tested on: Digitaria sanguinalis (DIGSA); experiment: Pre-emergence herbicidal action against DIGSA
Outline: as §1

[21] = tested on: Pharbitis purpurea (PHBPU); experiment: Pre-emergence herbicidal action against PHBPU; conditions: dosage 320 g/ha
Outline: as §1

[22] = tested on: Verconica persica (VERPE); experiment: Pre-emergence herbicidal action against VERPE
Outline: as §1

[23] = tested on: Matricaria inodora (MATIN); experiment: Post-emergence herbicidal action against MATIN
Outline: as §3

Setaria viridis (SETVI) [24] = experiment: Post-emergence herbicidal action against SETVI; conditions: dosage 320 g/ha
Outline: as §3

[25] = tested on: Verconica persica (VERPE); experiment: Post-emergence herbicidal action against VERPE
Outline: as §3

Viola tricolor (VIOTR) [26] = experiment: Post-emergence herbicidal action against VIOTR
Outline: as §3

Zea mays (ZEAMX) [27] = conditions: crop plant compatibility, 80 g/ha, effect vs untreated controls
Outline: as §4

[28] = 320 g/ha, visual rating about 3 weeks after treatment

## CCOC(=O)COc1nn(-c2ccccn2)c(-c2ccc(F)nc2)c1[N+](=O)[O-] [Example I-359]
[1]; 320 g/ha
  Pre-emergence action against AMARE in %: 90%
[2]
  Pre-emergence action against ECHCG in %: 80%
Lolium rigidum (LOLRI) [3]
  Pre-emergence action against LOLRI in %: 80%
[4]
  Pre-emergence action against MATIN in %: 90%
[5]; dosage 320 g/ha
  Pre-emergence action against POLCO in %: 80%
Setaria viridis (SETVI) [6]; dosage 80 g/ha
  Pre-emergence action against SETVI in %: 90%
Setaria viridis (SETVI) [6]; dosage 320 g/ha
  Pre-emergence action against SETVI in %: 100%
Viola tricolor (VIOTR) [7]; 320 g/ha, Viola tricolor
  Pre-emergence action against VIOTR in %: 100%
[8]
  Pre-emergence action against TRZAS in %: 0%
Zea mays (ZEAMX) [9]
  Pre-emergence action against ZEAMX in %: 10%
[10]; 320 g/ha
  Post-emergence action against ABUTH in %: 80%
[11]
  Post-emergence action against ALOMY in %: 90%
[12]; [28]
  Post-emergence action against AMARE in %: 90%
Avena fatua (AVEFA) [13]
  Post-emergence action against AVEFA in %: 90%
[14]
  Post-emergence action against ECHCG in %: 80%
Lolium rigidum (LOLRI) [15]
  Post-emergence action against LOLRI in %: 80%
[16]; dosage 320 g/ha
  Post-emergence action against PHBPU in %: 80%
[17]; dosage 320 g/ha
  Post-emergence action against POLCO in %: 80%
Oryza sativa (ORYSA); 80 g/ha
  Post-emergence action against ORYSA in %: 0%
Oryza sativa (ORYSA); 320 g/ha
  Post-emergence action against ORYSA in %: 0%

## COC(=O)[C@@H](C)Oc1nn(-c2ncccc2F)c(-c2cccnc2)c1Br [Example I-03]
[18]; 80 g/ha
  Pre-emergence action against ALOMY: 90%
[18]; 320 g/ha
  Pre-emergence action against ALOMY: 100%
[1]; 80 g/ha
  Pre-emergence action against AMARE in %: 90%
[1]; 320 g/ha
  Pre-emergence action against AMARE in %: 100%
Avena fatua (AVEFA) [19]
  Pre-emergence action against AVEFA in %: 80%
[20]; 80 g/ha, visual scoring after about 3 weeks vs untreated controls
  Pre-emergence action against DIGSA in %: 90%
[20]; dosage 320 g/ha
  Pre-emergence action against DIGSA in %: 100%
[2]
  Pre-emergence action against ECHCG in %: 80%
Lolium rigidum (LOLRI) [3]
  Pre-emergence action against LOLRI in %: 100%
[4]
  Pre-emergence action against MATIN in %: 100%
[21]
  Pre-emergence action against PHBPU in %: 90%
[5]; dosage 80 g/ha
  Pre-emergence action against POLCO in %: 90%
[5]; dosage 320 g/ha
  Pre-emergence action against POLCO in %: 100%
Setaria viridis (SETVI) [6]; dosage 320 g/ha
  Pre-emergence action against SETVI in %: 100%
[22]; dosage 80 g/ha
  Pre-emergence action against VERPE in %: 90%
[22]; dosage 320 g/ha
  Pre-emergence action against VERPE in %: 100%
Viola tricolor (VIOTR) [7]; 320 g/ha, Viola tricolor
  Pre-emergence action against VIOTR in %: 100%
Viola tricolor (VIOTR) [7]; dosage 80 g/ha
  Pre-emergence action against VIOTR in %: 100%
[8]
  Pre-emergence action against TRZAS in %: 10%
[10]; 80 g/ha
  Post-emergence action against ABUTH in %: 80%
[10]; 320 g/ha
  Post-emergence action against ABUTH in %: 90%
[11]
  Post-emergence action against ALOMY in %: 100%
[12]; 80 g/ha, visual rating about 3 weeks after treatment vs untreated controls (100% = plants have died, 0% = like control plants)
  Post-emergence action against AMARE in %: 80%
[12]; [28]
  Post-emergence action against AMARE in %: 90%
Avena fatua (AVEFA) [13]
  Post-emergence action against AVEFA in %: 90%
[14]
  Post-emergence action against ECHCG in %: 90%
[23]; dosage 80 g/ha
  Post-emergence action against MATIN in %: 80%
[23]; dosage 320 g/ha
  Post-emergence action against MATIN in %: 90%
[16]; dosage 80 g/ha
  Post-emergence action against PHBPU in %: 90%
[16]; dosage 320 g/ha
  Post-emergence action against PHBPU in %: 100%
[17]; dosage 80 g/ha
  Post-emergence action against POLCO in %: 90%
[17]; dosage 320 g/ha
  Post-emergence action against POLCO in %: 90%
Setaria viridis (SETVI) [24]
  Post-emergence action against SETVI in %: 90%
[25]; 320 g/ha, VERPE
  Post-emergence action against VERPE in %: 90%
[25]; dosage 80 g/ha
  Post-emergence action against VERPE in %: 80%
Viola tricolor (VIOTR) [26]; 80 g/ha
  Post-emergence action against VIOTR in %: 90%
Viola tricolor (VIOTR) [26]; 320 g/ha
  Post-emergence action against VIOTR in %: 90%
Oryza sativa (ORYSA); 80 g/ha
  Post-emergence action against ORYSA in %: 0%
Zea mays (ZEAMX) [27]
  Post-emergence action against ZEAMX in %: 0%
